Assay results as given in patent publication US12264349B2, “Method for producing monoterpenoid compounds” (John Innes Centre, priority 2018, dated 2025).
Like-named read-outs stand apart in the source and are kept apart here.

Assays:
[1] = biological target: T1, NEPS1-WT (Nepeta racemosa, UniProt A0A3Q8GL18); assay: NEPS1 dehydrogenase activity kinetics, spectrophotometric at 340 nm; format: biochemical, Nepeta mussinii; details: for Kcat or V (velocity V, single substrate concentration): substrate 1000 μM
T1 construct: made in house; host or cells: E. coli SoluBL21
T1 sequence (A0A3Q8GL18 1-271): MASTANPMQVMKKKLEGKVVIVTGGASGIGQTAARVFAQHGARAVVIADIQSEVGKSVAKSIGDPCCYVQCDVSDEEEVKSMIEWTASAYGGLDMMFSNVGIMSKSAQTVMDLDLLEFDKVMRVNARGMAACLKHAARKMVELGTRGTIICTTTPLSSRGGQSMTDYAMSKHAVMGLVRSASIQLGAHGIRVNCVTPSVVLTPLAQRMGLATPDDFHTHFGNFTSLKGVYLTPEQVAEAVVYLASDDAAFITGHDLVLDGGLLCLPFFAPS
Experimental: (§1) Kinetics and dehydrogenase activity measurements were conducted spectrophotometrically on a PerkinElmer Lambda 35 instrument at a wavelength of 340 nm and in cuvettes with 1 cm path length. The reactions were conducted at 25° C. and with 50 mM HEPES pH 8.0, […].
(§2) Reactions were initiated by addition of the enzyme, and absorbance values were recorded at a rate of 1 Hz. Enzyme concentration was varied from 0.025-0.25 μM to maintain a linear rate. The R software environment was used to fit linear initial rates over the first 20 s of the enzyme reaction. For Michaelis-Menten experiments, at least 8 data points were obtained for each substrate combination. The Michaelis-Menten equation was fitted to the data points in R by the nls function to obtain values for the kinetic parameters. Kinetic parameters are reported as a best fit estimate±SE. For activity measurements with NADP^+ and NADH, single substrate concentrations were employed. Velocity values (in italics) are provided as a mean of triplicate measurements±standard deviation from the mean.

[2] = biological target: T2, NEPS1-T154G (Nepeta racemosa, UniProt A0A3Q8GL18, T154G); format: biochemical, Nepeta mussinii
T2 construct: This gene-length amplicon was gel-purified and then cloned into the pOPINF vector; made in house; host or cells: E. coli SoluBL21
Experimental: as §1, §2

[3] = Nepetalactol stability in buffer (GC-MS); format: physicochemical; details: 30° C.
Experimental: Cis-trans-nepetalactol (4a, FIG. 10A) and cis-cis-nepetalactol (4b, FIG. 10B) stability in 10 mM and 0.5 M MOPS pH 7.5. 4a appears to be stable in both these conditions. 4b appears mostly stable in 10 mM MOPS pH 7.5, but is not stable in high buffer concentrations (0.5 M MOPS pH 7.5) and degrades to form iridodials 5. Chromatograms are all GC-MS TICs, RT=retention time (min), incubation was 16 h, 30° C.
End-point assays with purified enzymes were conducted at a total volume of 100 μL. Reactions using either 8-oxogeranial 2 or 8-oxocitronellal 6 as a substrate contained 1% v/v MeCN. In experiments examining the effect of buffer concentrations, enzymes were diluted with water. Trace residual concentrations of sample buffer in the enzyme sample were too low to effect product profiles. All reactions were conducted at 30° C. Reactions containing 8-oxogeranial 2 as a substrate were incubated for 3 h, whilst reactions with 8-oxocitronellal 6 were incubated for 16 h, unless noted. At reaction termination, a camphor standard (10 μL, stock 1 mM in MeCN) and EtOAc (100 μL) were added. The reactions were vortexed, centrifuged (10,000×g, 10 min) and the organic layer was used in GC-MS analysis. The concentrations of components in reactions varied extensively and so for each reaction the Figure or Figure legend describe the exact conditions employed.
Samples were injected in split mode (2 μL, split ratio 5:1) at an inlet temperature of 220° C. on a Hewlett Packard 6890 GC-MS equipped with a 5973 mass selective detector (MSD), and an Agilent 7683B series injector and autosampler. Separation was performed on a Zebron ZB5-HT-INFERNO column (5% phenyl methyl siloxane; length: 35 m; diameter: 250 μm) with guard column. Helium was used as mobile phase at a constant flow rate of 1.2 mL/min and average velocity 37 cm/s. After 5 min at 80° C., the column temperature was increased to 110° C. at a rate of 2.5 K/min, then to 280° C. at 120 K/min, and kept at 280° C. for another 4 min. A solvent delay of 5 min was allowed before collecting MS spectra at a fragmentation energy of 70 eV. An internal standard of (+)-camphor was used for retention time calibration. Chemically characterised standards were used to identify compounds by retention time and electron impact spectra.

[4] = co-substrate NAD+ 1 mM, 25° C., 50 mM HEPES pH 8.0
[5] = co-substrate NAD+ 1 mM, substrate 50-750 μM
[6] = co-substrate 4a 0.1 mM, substrate 1-250 μM
[7] = co-substrate 4a 0.5 mM, substrate 7.8-1000 μM

CC1=COC(=O)[C@H]2[C@@H]1CC[C@@H]2C (relative stereo) [1a, cis-trans-nepetalactone]
Kcat or V (velocity V, single substrate concentration) ([1]; co-substrate NADH 0.1 mM): no reaction

CC1=COC(O)[C@H]2[C@@H]1CC[C@@H]2C (relative stereo) [4a, cis-trans-nepetalactol]
Kcat or V (kcat, substrate concentration varied) [1, 4]: 0.148 ± 0.002 s⁻¹
Km [1, 4]: 1.6 ± 0.1 µM
increase in Km caused by the T154G substitution ([2]; NEPS1-T154G versus NEPS1-WT): 150 fold
Kcat or V (kcat, substrate concentration varied) [2, 5]: 0.0804 ± 0.005 s⁻¹
Km [2, 5]: 251 ± 37 µM
stability in buffer ([3]; 10 mM MOPS pH 7.5, 16 h): stable
stability in buffer ([3]; 0.5 M MOPS pH 7.5, 16 h): stable

CC1=COC(O)[C@H]2[C@@H](C)CC[C@@H]12 (relative stereo) [4b, cis-cis-nepetalactol]
Kcat or V (kcat, substrate concentration varied) [1, 4]: 0.32 ± 0.01 s⁻¹
Km [1, 4]: 4.9 ± 0.8 µM
stability in buffer ([3]; 10 mM MOPS pH 7.5, 16 h): mostly stable
stability in buffer ([3]; 0.5 M MOPS pH 7.5, 16 h): not stable

NC(=O)c1ccc[n+]([C@@H]2O[C@H](COP(=O)([O-])OP(=O)(O)OC[C@H]3O[C@@H](n4cnc5c(N)ncnc54)[C@H](O)[C@@H]3O)[C@@H](O)[C@H]2O)c1 [NAD+, oxidized nicotinamide adenine dinucleotide, reference compound]
Kcat or V (kcat, substrate concentration varied) [1, 6]: 0.173 ± 0.003 s⁻¹
Km [1, 6]: 3.5 ± 0.3 µM
Kcat or V (kcat, substrate concentration varied) [2, 7]: 0.0599 ± 0.002 s⁻¹
Km [2, 7]: 26 ± 4 µM

NC(=O)c1ccc[n+]([C@@H]2O[C@H](COP(=O)([O-])OP(=O)(O)OC[C@H]3O[C@@H](n4cnc5c(N)ncnc54)[C@H](OP(=O)(O)O)[C@@H]3O)[C@@H](O)[C@H]2O)c1 [NADP+, reference compound]
Kcat or V (velocity V, single substrate concentration) ([1]; co-substrate 4a 0.1 mM): 0.020 ± 0.005 s⁻¹
